Test results taken from publication PMC9652212 (Clinical Pharmacokinetics, 2022).
Where two headings read alike, the source gives them in different places.

What was measured:
[1] = assay type: in vivo, human
[2] = cited from earlier work
hepatic CYP3A activity = settings: time after (first) perpetrator drug administration
[3] = test system: pooled human liver microsomes; settings: MDZ and efavirenz; cited from earlier work
CYP3A = settings: cited from earlier work
[4] = calculated from model parameters
[5] = metabolite in the absence of parent compound, ref Hotz et al. 27
[6] = ref Wiebe et al. 23, Tomalik-Scharte et al. 25
[7] = oral and i.v. bolus administration

Compound: OCc1ncc2n1-c1ccc(Cl)cc1C(c1ccccc1F)=NC2 [1’-OH-MDZ, 1’-hydroxymidazolam]
- Elimination rate constant of 1’-OH-MDZ [1, 4]: 0.880 h⁻¹
- Formation rate constant of 1’-OH-MDZ [1, 4]: 0.712 h⁻¹
- IIV of 1’-OH-MDZ CL ([1]; interindividual variability): 42.0 %CV
- 1’-OH-MDZ CL ([1]; population estimate after metabolic conversion of MDZ): 264 L/h
- 1’-OH-MDZ CL, reported [2, 5]: 34.4 to 56.7 L/h
- 1’-OH-MDZ V, reported [2, 5]: 49.7 to 79.8 L
- 1’-OH-MDZ CL, reported [2, 6]: 186 to 208 L/h
- 1’-OH-MDZ V, reported [2, 6]: 256 to 876 L

Compound: O=C1Nc2ccc(Cl)cc2[C@@](C#CC2CC2)(C(F)(F)F)O1 [efavirenz]
- Time of maximum CYP3A modulatory effect (hepatic CYP3A activity): 2 to 4 h
- Increase in metabolite formation rates [3]: ~ 1.5 fold
- Increase in MDZ CL (CYP3A; 12 h after efavirenz administration, ref Mikus et al. 32): 27%

Compound: C[C@@H](c1ncncc1F)[C@](O)(Cn1cncn1)c1ccc(F)cc1F [voriconazole]
- Oral bioavailability [2]: > 90%
- Decrease in hepatic CYP3A activity (CYP3A; within 12 h after oral voriconazole, semi-physiological model): 75%

Compound: Cc1ncc2n1-c1ccc(Cl)cc1C(c1ccccc1F)=NC2 [midazolam]
- Vd ([1]; human, plasma, intravenous): 56.7 L
- clearance ([1]; human, plasma, intravenous): 732 mL/min
- IIV of MDZ CL ([1]; interindividual variability): 21.9 %CV
- IIV of MDZ volume of distribution ([1]; interindividual variability): 29.9 %CV
- MDZ CL, reported [2, 7]: 15.2 to 45.0 L/h
- MDZ V, reported [2, 7]: 33.3 to 180 L/h
